Test results published in PubChem BioAssay AID1918943 (Molecular Pharmacology Branch, DTP, NCI, 2023).
pIC50: −log10 of the molar value.

System: 855422-203-R-J1-PDC complex spheroid viability
Assay: Anticancer human tumor 855422-203-R-J1-PDC patient-derived bladder carcinoma cell line growth inhibition
Settings: for pIC50: curve of first compound; for viability, T/C: stronger effect = lower value
In short: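 Multicellular complex spheroids of tumor cells with human endothelial cells (HUVEC) and mesenchymal stem cells; the LSD1 inhibitor iadademstat was combined with standard-of-care or investigational agents. Top concentration at or near clinical Cmax, half-log dilutions; final DMSO ≤0.25%.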

[1] = second compound 0.1 µM, first compound 0.000316 µM
[2] = second compound 0.1 µM, first compound 0.001 µM
[3] = second compound 0.1 µM, first compound 0.00316 µM
[4] = second compound 0.1 µM, first compound 0.01 µM
[5] = second compound 0.1 µM, first compound 0.0316 µM
[6] = second compound 0.1 µM, first compound 0.1 µM
[7] = second compound 0.316 µM, first compound 0.000316 µM
[8] = second compound 0.316 µM, first compound 0.001 µM
[9] = second compound 0.316 µM, first compound 0.00316 µM
[10] = second compound 0.316 µM, first compound 0.01 µM
[11] = second compound 0.316 µM, first compound 0.0316 µM
[12] = second compound 0.316 µM, first compound 0.1 µM
[13] = second compound 1 µM, first compound 0.000316 µM
[14] = second compound 1 µM, first compound 0.001 µM
[15] = second compound 1 µM, first compound 0.00316 µM
[16] = second compound 1 µM, first compound 0.01 µM
[17] = second compound 1 µM, first compound 0.0316 µM
[18] = second compound 1 µM, first compound 0.1 µM
[19] = second compound 3.16 µM, first compound 0.000316 µM
[20] = second compound 3.16 µM, first compound 0.001 µM
[21] = second compound 3.16 µM, first compound 0.00316 µM
[22] = second compound 3.16 µM, first compound 0.01 µM
[23] = second compound 3.16 µM, first compound 0.0316 µM
[24] = second compound 3.16 µM, first compound 0.1 µM
[25] = second compound 10 µM, first compound 0.000316 µM
[26] = second compound 10 µM, first compound 0.001 µM
[27] = second compound 10 µM, first compound 0.00316 µM
[28] = second compound 10 µM, first compound 0.01 µM
[29] = second compound 10 µM, first compound 0.0316 µM
[30] = second compound 10 µM, first compound 0.1 µM
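Also: drug exposure lasted 7 days starting on day 3 after seeding.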
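For viability, T/C in this document: luminescence viability as percent of DMSO vehicle wells = 100%.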

In the case of `CC(C)CC(NC(=O)C(Cc1ccccc1)NC(=O)c1cnccn1)B(O)O` (stereo not given) + NC1CC1c1ccc(-c2cccc(O)c2)cc1, the pIC50 (second compound 0.1 µM) was 9.19, the pIC50 (second compound 0.316 µM) was 9.20 and the pIC50 (second compound 1 µM) was 9.21. For the same molecule, the pIC50 (second compound 3.16 µM) was 9.22, the pIC50 (second compound 10 µM) was 9.24 and the viability, T/C [1] was 127%. It also gave a viability, T/C [2] of 1.42%, a viability, T/C [3] of 0.04% and a viability, T/C [4] of 0.01%. For the same molecule, the viability, T/C [5] was 0.03%, the viability, T/C [6] was 0.14% and the viability, T/C [7] was 122%. The viability, T/C [8] was 1.03%, the viability, T/C [9] was 0.02% and the viability, T/C [10] was 0.01%. For the same molecule, the viability, T/C [11] was 0.02%, the viability, T/C [12] was 0.11% and the viability, T/C [13] was 115%. It also gave a viability, T/C [14] of 0.89%, a viability, T/C [15] of 0.02% and a viability, T/C [16] of 0.01%. For the same molecule, the viability, T/C [17] was 0.02%, the viability, T/C [18] was 0.12% and the viability, T/C [19] was 113%. It also gave a viability, T/C [20] of 0.68%, a viability, T/C [21] of 0.03% and a viability, T/C [22] of 0.02%. It also gave a viability, T/C [23] of 0.03%, a viability, T/C [24] of 0.12% and a viability, T/C [25] of 105%. It also gave a viability, T/C [26] of 0.52%, a viability, T/C [27] of 0.15% and a viability, T/C [28] of 0.14%. It also gave a viability, T/C [29] of 0.13% and a viability, T/C [30] of 0.19%.

`CC(C)CC(NC(=O)CNC(=O)c1cc(Cl)ccc1Cl)B1OC(=O)CC(CC(=O)O)(C(=O)O)O1` (stereo not given) + NC1CC1c1ccc(-c2cccc(O)c2)cc1 was tested, and the pIC50 (second compound 0.1 µM) was 8.74, the pIC50 (second compound 0.316 µM) was 8.74 and the pIC50 (second compound 1 µM) was 8.74. For the same molecule, the pIC50 (second compound 3.16 µM) was 8.76, the pIC50 (second compound 10 µM) was 8.81 and the viability, T/C [1] was 92.8%. It also gave a viability, T/C [2] of 104%, a viability, T/C [3] of 3.7% and a viability, T/C [4] of 0.43%. The viability, T/C [5] was 0.02%, the viability, T/C [6] was 0.13% and the viability, T/C [7] was 104%. The viability, T/C [8] was 102%, the viability, T/C [9] was 3.27% and the viability, T/C [10] was 1.25%. For the same molecule, the viability, T/C [11] was 0.02%, the viability, T/C [12] was 0.1% and the viability, T/C [13] was 94.6%. The viability, T/C [14] was 108%, the viability, T/C [15] was 3.81% and the viability, T/C [16] was 1.65%. The viability, T/C [17] was 0.03%, the viability, T/C [18] was 0.11% and the viability, T/C [19] was 95%. It also gave a viability, T/C [20] of 94.6%, a viability, T/C [21] of 3.11% and a viability, T/C [22] of 1%. For the same molecule, the viability, T/C [23] was 0.03%, the viability, T/C [24] was 0.1% and the viability, T/C [25] was 92%. The viability, T/C [26] was 78.9%, the viability, T/C [27] was 2.61% and the viability, T/C [28] was 0.2%. It also gave a viability, T/C [29] of 0.11% and a viability, T/C [30] of 0.17%.

With `COc1cc(Nc2ncc3c(n2)-c2ccc(Cl)cc2C(c2c(F)cccc2OC)=NC3)ccc1C(=O)O` + NC1CC1c1ccc(-c2cccc(O)c2)cc1 the pIC50 (second compound 0.1 µM) was 6.17, the pIC50 (second compound 0.316 µM) was 6.55 and the pIC50 (second compound 1 µM) was 7.05. It also gave a pIC50 (second compound 3.16 µM) of 6.56, a pIC50 (second compound 10 µM) of 6.87 and a viability, T/C [3] of 96.4%. The viability, T/C [4] was 103%, the viability, T/C [5] was 84% and the viability, T/C [6] was 68.6%. It also gave a viability, T/C (second compound 0.1 µM, first compound 0.316 µM) of 56.2%, a viability, T/C (second compound 0.1 µM, first compound 1 µM) of 46.5% and a viability, T/C [9] of 96.9%. For the same molecule, the viability, T/C [10] was 96.4%, the viability, T/C [11] was 71% and the viability, T/C [12] was 61.2%. For the same molecule, the viability, T/C (second compound 0.316 µM, first compound 0.316 µM) was 49.9%, the viability, T/C (second compound 0.316 µM, first compound 1 µM) was 44.4% and the viability, T/C [15] was 82.5%. It also gave a viability, T/C [16] of 93.4%, a viability, T/C [17] of 69.5% and a viability, T/C [18] of 51.8%. It also gave a viability, T/C (second compound 1 µM, first compound 0.316 µM) of 45.8%, a viability, T/C (second compound 1 µM, first compound 1 µM) of 46.1% and a viability, T/C [21] of 88.3%. It also gave a viability, T/C [22] of 95.5%, a viability, T/C [23] of 69.9% and a viability, T/C [24] of 61.4%. For the same molecule, the viability, T/C (second compound 3.16 µM, first compound 0.316 µM) was 50%, the viability, T/C (second compound 3.16 µM, first compound 1 µM) was 43.4% and the viability, T/C [27] was 85.7%. The viability, T/C [28] was 94.1%, the viability, T/C [29] was 63.1% and the viability, T/C [30] was 56.8%. It also gave a viability, T/C (second compound 10 µM, first compound 0.316 µM) of 44.2% and a viability, T/C (second compound 10 µM, first compound 1 µM) of 39.5%.

Molecule `O=C(C=Cc1cccc(S(=O)(=O)Nc2ccccc2)c1)NO` + NC1CC1c1ccc(-c2cccc(O)c2)cc1 has a pIC50 (second compound 0.1 µM) of 6.35, a pIC50 (second compound 0.316 µM) of 6.35 and a pIC50 (second compound 1 µM) of 6.39. It also gave a pIC50 (second compound 3.16 µM) of 6.33, a pIC50 (second compound 10 µM) of 6.47 and a viability, T/C (second compound 0.1 µM, first compound 0.00949 µM) of 102%. It also gave a viability, T/C (second compound 0.1 µM, first compound 0.03 µM) of 109%, a viability, T/C (second compound 0.1 µM, first compound 0.0949 µM) of 106% and a viability, T/C (second compound 0.1 µM, first compound 0.3 µM) of 66.2%. For the same molecule, the viability, T/C (second compound 0.1 µM, first compound 0.949 µM) was 17.4%, the viability, T/C (second compound 0.1 µM, first compound 3 µM) was 0.43% and the viability, T/C (second compound 0.316 µM, first compound 0.00949 µM) was 103%. The viability, T/C (second compound 0.316 µM, first compound 0.03 µM) was 112%, the viability, T/C (second compound 0.316 µM, first compound 0.0949 µM) was 122% and the viability, T/C (second compound 0.316 µM, first compound 0.3 µM) was 66.4%. For the same molecule, the viability, T/C (second compound 0.316 µM, first compound 0.949 µM) was 19.4%, the viability, T/C (second compound 0.316 µM, first compound 3 µM) was 0.31% and the viability, T/C (second compound 1 µM, first compound 0.00949 µM) was 100%. For the same molecule, the viability, T/C (second compound 1 µM, first compound 0.03 µM) was 116%, the viability, T/C (second compound 1 µM, first compound 0.0949 µM) was 114% and the viability, T/C (second compound 1 µM, first compound 0.3 µM) was 60.4%. The viability, T/C (second compound 1 µM, first compound 0.949 µM) was 18.3%, the viability, T/C (second compound 1 µM, first compound 3 µM) was 0.29% and the viability, T/C (second compound 3.16 µM, first compound 0.00949 µM) was 94.5%. For the same molecule, the viability, T/C (second compound 3.16 µM, first compound 0.03 µM) was 105%, the viability, T/C (second compound 3.16 µM, first compound 0.0949 µM) was 118% and the viability, T/C (second compound 3.16 µM, first compound 0.3 µM) was 69.8%. It also gave a viability, T/C (second compound 3.16 µM, first compound 0.949 µM) of 17.1%, a viability, T/C (second compound 3.16 µM, first compound 3 µM) of 0.24% and a viability, T/C (second compound 10 µM, first compound 0.00949 µM) of 97.6%. The viability, T/C (second compound 10 µM, first compound 0.03 µM) was 108%, the viability, T/C (second compound 10 µM, first compound 0.0949 µM) was 106% and the viability, T/C (second compound 10 µM, first compound 0.3 µM) was 54%. For the same molecule, the viability, T/C (second compound 10 µM, first compound 0.949 µM) was 10.9% and the viability, T/C (second compound 10 µM, first compound 3 µM) was 0.27%.
